# Measured values as given in US20070032506A1, “CRYSTALLINE FORMS OF (2R-TRANS)-6-CHLORO-5[[4-[(4-FLUOROPHENYL)METHYL]-2,5-DIMETHYL-1-PIPERAZINYL]CARBONYL]-N,N, 1-TRIMETHYL-ALPHA-OXO-1H-INDOLE-3-ACETAMIDE MONOHYDROCHLORIDE” (priority 2005, published 2007).
# Experiment: Dynamic Vapor Sorption analysis
# Assay type: physicochemical
# Details: humidity range ~21-70% Relative Humidity, Material recrystallized from isopropanol
# Description: The results of the XRPD analysis are shown both in Table I above and in FIG. 2. Dynamic Vapor Sorption analysis of this same materials was also done. […] (2 moles of water per molecule of the Compound would be 6.15% water).
smiles,measurement,value
"C[C@@H]1CN(Cc2ccc(F)cc2)[C@@H](C)CN1C(=O)c1cc2c(C(=O)C(=O)N(C)C)cn(C)c2cc1Cl.Cl [Compound, (2R-trans)-6-chloro-5-[[4-[(4-fluorophenyl)methyl]-2,5-dimethyl-1-piperazinyl]carbonyl]-N,N, 1-trimethyl-alpha-oxo-1H-indole-3-acetamide monohydrochloride]",water content (water weight gained),6-7%
